How the values were obtained:
[1] = test system: P70S6K (Thr389) phosphorylation (mTORC1) in MDA-MB-468 cells; assay: Cell based AlphaLISA assay, mTOR kinase cellular assay: inhibition of p-P70S6K (T389) in MDA-MB-468 cells; conditions: Homo sapiens, read-out: pIC50 for Inhibition of mTORC1 and mTORC2 Substarte Phosphorylation p-P70S6K-(T389) (converted)
Method: Cell Based AlphaLISA Assays for Determining IC50 For Inhibition of P-Akt (S473), P-4E-BP1 (T37/46), and P-P70S6K (T389) in MDA-MB-468 Cells
mTOR Kinase Cellular Assay
To measure functional activity of mTORC1 and mTORC2 in cells the phosphorylation of 4EBP1 (Thr37/46) and P70S6K (Thr389), and AKT1/2/3 (Ser473) was monitored using AlphaLisa SureFire Ultra Kits (Perkin Elmer). MDA-MB-468 cells (ATCC® HTB-132) were cultured in 96-well tissue culture plates and treated with compounds in the disclosure at concentrations varying from 0.017-1,000 nM for two to four hours at 37° C. Incubations were terminated by removal of the assay buffer and addition of lysis buffer provided with the assay kit. Samples were processed according to the manufacturer's instructions. The Alpha signal from the respective phosphoproteins was measured in duplicate using a microplate reader (Envision, Perkin-Elmer or Spectramax M5, Molecular Devices). Inhibitor concentration response curves were analyzed using normalized IC50 regression curve fitting with control based normalization.

[2] = test system: 4EBP1 (Thr37/46) phosphorylation (mTORC1) in MDA-MB-468 cells; assay: Cell based AlphaLISA assay, mTOR kinase cellular assay: inhibition of p-4E-BP1 (T37/46) in MDA-MB-468 cells; conditions: Homo sapiens, read-out: pIC50 for Inhibition of mTORC1 and mTORC2 Substarte Phosphorylation p-4E-BP1-(T37/46) (converted)
Outline: (§1)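 MDA-MB-468 cells treated with compound at 0.017-1,000 nM for two to four hours at 37° C, then lysed. Phospho-AKT1/2/3 S473, 4EBP1 T37/46 and P70S6K T389 quantified by AlphaLISA SureFire Ultra in duplicate; IC50 from normalized regression with control-based normalization.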

[3] = test system: AKT1/2/3 (Ser473) phosphorylation (mTORC2) in MDA-MB-468 cells; assay: Cell based AlphaLISA assay, mTOR kinase cellular assay: inhibition of p-Akt (S473) in MDA-MB-468 cells; conditions: Homo sapiens, read-out: pIC50 for Inhibition of mTORC1 and mTORC2 Substarte Phosphorylation p-AKT1/2/3-(S473) (converted)
Outline: as §1

Structure (SMILES)	IC50 [1]	IC50 [2]	IC50 [3]
CO[C@H]1C[C@@H]2CC[C@@H](C)[C@@](O)(O2)C(=O)C(=O)N2CCCC[C@H]2C(=O)O[C@H]([C@H](C)C[C@@H]2CC[C@@H](OC(=O)NCc3cnc(N4CCN(c5ncc(C(=O)NCCOCCOCCOCCOCCC(=O)NCCCCn6nc(-c7cnc8[nH]ccc8c7)c7c(N)ncnc76)cn5)CC4)nc3)[C@H](OC)C2)CC(=O)[C@H](C)/C=C(\C)[C@@H](O)[C@@H](OC)C(=O)[C@H](C)C[C@H](C)/C=C/C=C/C=C/1C [Example 32]	≤ 1 nM	≤ 3.16 nM	3.16 to 31.6 nM
CO[C@H]1C[C@@H]2CC[C@@H](C)[C@@](O)(O2)C(=O)C(=O)N2CCCC[C@H]2C(=O)O[C@H]([C@H](C)C[C@@H]2CC[C@@H](OC(=O)NCc3cnc(N4CCN(c5ncc(C(=O)NCCOCCOCCOCCOCCC(=O)N6CCc7cc(Cn8nc(-c9cnc%10[nH]ccc%10c9)c9c(N)ncnc98)ccc7C6)cn5)CC4)nc3)[C@H](OC)C2)CC(=O)[C@H](C)/C=C(\C)[C@@H](O)[C@@H](OC)C(=O)[C@H](C)C[C@H](C)/C=C/C=C/C=C/1C [Example 33]	≤ 1 nM	≤ 3.16 nM	> 1000 nM
CO[C@H]1C[C@@H]2CC[C@@H](C)[C@@](O)(O2)C(=O)C(=O)N2CCCC[C@H]2C(=O)O[C@H]([C@H](C)C[C@@H]2CC[C@@H](OC(=O)N(C)Cc3cnc(N4CCN(c5ncc(C(=O)NCCOCCOCCOCCOCCC(=O)N6CCc7cc(Cn8nc(-c9cnc%10[nH]ccc%10c9)c9c(N)ncnc98)ccc7C6)cn5)CC4)nc3)[C@H](OC)C2)CC(=O)[C@H](C)/C=C(\C)[C@@H](O)[C@@H](OC)C(=O)[C@H](C)C[C@H](C)/C=C/C=C/C=C/1C [Example 34]	≤ 1 nM	> 1000 nM	> 1000 nM
CO[C@H]1C[C@@H]2CC[C@@H](C)[C@@](O)(O2)C(=O)C(=O)N2CCCC[C@H]2C(=O)O[C@H]([C@H](C)C[C@@H]2CC[C@@H](OC(=O)N3CCc4nc(N5CCN(c6ncc(C(=O)NCCOCCOCCOCCOCCC(=O)NCCCCn7nc(-c8cnc9[nH]ccc9c8)c8c(N)ncnc87)cn6)CC5)ncc4C3)[C@H](OC)C2)CC(=O)[C@H](C)/C=C(\C)[C@@H](O)[C@@H](OC)C(=O)[C@H](C)C[C@H](C)/C=C/C=C/C=C/1C [Example 35]	≤ 1 nM	≤ 3.16 nM	3.16 to 31.6 nM
CO[C@H]1C[C@@H]2CC[C@@H](C)[C@@](O)(O2)C(=O)C(=O)N2CCCC[C@H]2C(=O)O[C@H]([C@H](C)C[C@@H]2CC[C@@H](OC(=O)N3CCc4nc(N5CCN(c6ncc(C(=O)NCCOCCOCCOCCOCCC(=O)N7CCc8cc(Cn9nc(-c%10cnc%11[nH]ccc%11c%10)c%10c(N)ncnc%109)ccc8C7)cn6)CC5)ncc4C3)[C@H](OC)C2)CC(=O)[C@H](C)/C=C(\C)[C@@H](O)[C@@H](OC)C(=O)[C@H](C)C[C@H](C)/C=C/C=C/C=C/1C [Example 36]	≤ 1 nM	≤ 3.16 nM	> 1000 nM
CO[C@H]1C[C@@H]2CC[C@@H](C)[C@@](O)(O2)C(=O)C(=O)N2CCCC[C@H]2C(=O)O[C@H]([C@H](C)C[C@@H]2CC[C@@H](OC(=O)N3CCN(c4ncc(C(=O)NCCOCCOCCOCCOCCOCCC(=O)N5CCc6cc(Cn7nc(-c8cnc9[nH]ccc9c8)c8c(N)ncnc87)ccc6C5)cn4)CC3)[C@H](OC)C2)CC(=O)[C@H](C)/C=C(\C)[C@@H](O)[C@@H](OC)C(=O)[C@H](C)C[C@H](C)/C=C/C=C/C=C/1C [Example 37]	≤ 1 nM	≤ 3.16 nM	> 1000 nM
CO[C@H]1C[C@@H]2CC[C@@H](C)[C@@](O)(O2)C(=O)C(=O)N2CCCC[C@H]2C(=O)O[C@H]([C@H](C)C[C@@H]2CC[C@@H](OC(=O)N3CCc4nc(N5CCN(CCOCCOCCOCCOCCOCCC(=O)N6CCc7cc(Cn8nc(-c9cnc%10[nH]ccc%10c9)c9c(N)ncnc98)ccc7C6)CC5)ncc4C3)[C@H](OC)C2)CC(=O)[C@H](C)/C=C(\C)[C@@H](O)[C@@H](OC)C(=O)[C@H](C)C[C@H](C)/C=C/C=C/C=C/1C [Example 38]	≤ 1 nM	> 1000 nM	> 1000 nM
CO[C@H]1C[C@@H]2CC[C@@H](C)[C@@](O)(O2)C(=O)C(=O)N2CCCC[C@H]2C(=O)O[C@H]([C@H](C)C[C@@H]2CC[C@@H](OC(=O)N3CCc4nc(N5CCN(c6ncc(C(=O)NCCOCCOCCOCCOCCC(=O)N7CCc8cc(Cn9nc(-c%10ccc%11oc(N)nc%11c%10)c%10c(N)ncnc%109)ccc8C7)cn6)CC5)ncc4C3)[C@H](OC)C2)CC(=O)[C@H](C)/C=C(\C)[C@@H](O)[C@@H](OC)C(=O)[C@H](C)C[C@H](C)/C=C/C=C/C=C/1C [Example 39]	≤ 1 nM	≤ 3.16 nM	≤ 3.16 nM
CO[C@H]1C[C@@H]2CC[C@@H](C)[C@@](O)(O2)C(=O)C(=O)N2CCCC[C@H]2C(=O)O[C@H]([C@H](C)C[C@@H]2CC[C@@H](OC(=O)NCc3cnc(N4CCN(c5ncc(C(=O)NCCOCCOCCOCCOCCC(=O)N6CCc7cc(Cn8nc(-c9ccc%10oc(N)nc%10c9)c9c(N)ncnc98)ccc7C6)cn5)CC4CO)nc3)[C@H](OC)C2)CC(=O)[C@H](C)/C=C(\C)[C@@H](O)[C@@H](OC)C(=O)[C@H](C)C[C@H](C)/C=C/C=C/C=C/1C (stereo partly drawn) [Example 40]	≤ 1 nM	≤ 3.16 nM	3.16 to 31.6 nM
CO[C@H]1C[C@@H]2CC[C@@H](C)[C@@](O)(O2)C(=O)C(=O)N2CCCC[C@H]2C(=O)O[C@H]([C@H](C)C[C@@H]2CC[C@@H](OC(=O)NCCOCCOCCOCCOCCC(=O)NCc3cnc(N4CCN(c5ncc(C(=O)N6CCc7cc(Cn8nc(-c9ccc%10oc(N)nc%10c9)c9c(N)ncnc98)ccc7C6)cn5)CC4)nc3)[C@H](OC)C2)CC(=O)[C@H](C)/C=C(\C)[C@@H](O)[C@@H](OC)C(=O)[C@H](C)C[C@H](C)/C=C/C=C/C=C/1C [Example 46]	≤ 1 nM	≤ 3.16 nM	3.16 to 31.6 nM
CO[C@H]1C[C@@H]2CC[C@@H](C)[C@@](O)(O2)C(=O)C(=O)N2CCCC[C@H]2C(=O)O[C@H]([C@H](C)C[C@@H]2CC[C@@H](OC(=O)NCCOCCOCCOCCOCCC(=O)NCc3cnc(N4CCN(c5ncc(C(=O)NCCCCn6nc(-c7cnc8[nH]ccc8c7)c7c(N)ncnc76)cn5)CC4)nc3)[C@H](OC)C2)CC(=O)[C@H](C)/C=C(\C)[C@@H](O)[C@@H](OC)C(=O)[C@H](C)C[C@H](C)/C=C/C=C/C=C/1C [Example 47]	≤ 1 nM	≤ 3.16 nM	3.16 to 31.6 nM
CO[C@H]1C[C@@H]2CC[C@@H](C)[C@@](O)(O2)C(=O)C(=O)N2CCCC[C@H]2C(=O)O[C@H]([C@H](C)C[C@@H]2CC[C@@H](OC(=O)NCCOCCOCCOCCOCCOCCOCCC(=O)N3CCC(N4CCC(C(=O)N5CCc6cc(Cn7nc(-c8ccc9oc(N)nc9c8)c8c(N)ncnc87)ccc6C5)CC4)CC3)[C@H](OC)C2)CC(=O)[C@H](C)/C=C(\C)[C@@H](O)[C@@H](OC)C(=O)[C@H](C)C[C@H](C)/C=C/C=C/C=C/1C [Example 48]	≤ 1 nM	≤ 3.16 nM	3.16 to 31.6 nM
CO[C@H]1C[C@@H]2CC[C@@H](C)[C@@](O)(O2)C(=O)C(=O)N2CCCC[C@H]2C(=O)O[C@H]([C@H](C)C[C@@H]2CC[C@@H](OC(=O)NCCOCCOCCOCCOCCC(=O)NCc3cnc(N4CCN(c5ncc(C(=O)N6CCc7cc(Cn8nc(-c9ccc%10oc(N)nc%10c9)c9c(N)ncnc98)ccc7C6)cn5)CC4)nc3)[C@H](OC)C2)C[C@@H](O)[C@H](C)/C=C(\C)[C@@H](O)[C@@H](OC)C(=O)[C@H](C)C[C@H](C)/C=C/C=C/C=C/1C [Example 49]	≤ 1 nM	≤ 3.16 nM	3.16 to 31.6 nM
CO[C@H]1C[C@@H]2CC[C@@H](C)[C@@](O)(O2)C(=O)C(=O)N2CCCC[C@H]2C(=O)O[C@H]([C@H](C)C[C@@H]2CC[C@@H](OC(=O)NCCOCCOCCOCCOCCC(=O)NCc3cnc(N4CCN(c5ncc(C(=O)N6CCc7cc(Cn8nc(-c9ccc%10oc(N)nc%10c9)c9c(N)ncnc98)ccc7C6)cn5)CC4)nc3)[C@H](OC)C2)C[C@@H](OC)[C@H](C)/C=C(\C)[C@@H](O)[C@@H](OC)C(=O)[C@H](C)C[C@H](C)/C=C/C=C/C=C/1C [Example 50]	≤ 1 nM	≤ 3.16 nM	31.6 to 1000 nM
CO[C@H]1C[C@@H]2CC[C@@H](C)[C@@](O)(O2)C(=O)C(=O)N2CCCC[C@H]2C(=O)O[C@H]([C@H](C)C[C@@H]2CC[C@@H](OC(=O)NCc3cnc(N4CCN(C(=O)CCOCCN5CCN(c6ncc(C(=O)N7CCc8cc(Cn9nc(-c%10ccc%11oc(N)nc%11c%10)c%10c(N)ncnc%109)ccc8C7)cn6)CC5)CC4)nc3)[C@H](OC)C2)CC(=O)[C@H](C)/C=C(\C)[C@@H](O)[C@@H](OC)C(=O)[C@H](C)C[C@H](C)/C=C/C=C/C=C/1C [Example 51]	≤ 1 nM	≤ 3.16 nM	≤ 3.16 nM
